Experimental findings from publication PMC7093416, “Selective USP7 inhibition elicits cancer cell killing through a p53-dependent mechanism” (Scientific Reports, 2020) are described below.

The subject of the experiment is MCF7 cells. The experiment in a line: 3' DGE RNA-seq transcriptional profiling. The format is cell-based. The conditions noted are these: for log2FoldChange: gene ABCA12. More on the design: log2FoldChange: concentration or dose not given beside the values. The procedure:
The DGE RNA sequencing was performed following the published method[39],[40] with modifications as described below. MCF7 cells were seeded in a 384 well plate at 2500 cells per well, allowed to adhere for 24 hours, then treated with two doses in triplicate of XL177A, XL177B, Nutlin-3, or DMSO. After 24 hours of treatment, an EL405x plate washer (BioTek) was used to aspirate the media and wash once with PBS. Cells were lysed in the plate with 10 µl of lysis buffer (1x Qiagen TCL, 1% BME) for 5 minutes at room temperature, then stored at −80 °C. Automated liquid handling was performed with assistance from ICCB-Longwood Screening Facility. A BRAVO Automated Liquid Handling Platform (Agilent) was used for RNA extraction as follows. The lysate was mixed and 10 µl was transferred to a 384 well PCR plate. 28 µl of homemade SPRI[66] (solid-phase reversible immobilization) beads were added to the lysate and mixed. After 5 minutes, the beads were pulled down by placing the plate on a magnet, then the beads were washed twice with 80% ethanol. Beads were air dried for 1 minute, then 20 µl of nuclease free water was added, the plate was removed from the magnet, and the beads were resuspended. After 5 minutes, the plate was placed back on the magnet to pull down the beads. The supernatant was transferred to a fresh 384 well plate. RNA quantity was checked with the Qubit Fluorometer and RNA quality was assessed using the Agilent BioAnalyzer RNA 6000 Pico Kit. The BRAVO platform was again used to transfer 5 µl of supernatant was transferred to a fresh 384 well plate with RT master mix and 1 µl of barcoded E3V6NEXT adapters for reverse transcription and template switching. The plate was incubated for 90 minutes at 42 °C, then cDNA was pooled, purified with the QIAquick PCR purification kit. The full-length cDNA was treated with Exonuclease I to remove excess primers for 30 minutes at 37 °C then amplified x5 cycles with Advantage 2 PCR Enzyme System using the SINGV6 primer. The amplified full-length cDNA was purified with Agencourt AMPure XP magnetic beads and quantitated by Qubit Fluorometer. The sequencing library was prepared using the Nextera DNA kit following the manufacturer’s instructions. Briefly, 55 ng of cDNA was tagmented for 5 minutes at 55 °C then purified using Zymo DNA Clean & Concetrator-5 column, then amplified x7 cycles and purified using a 0.9x ratio of AMPure XP magnetic beads. The library size distribution was assessed by Agilent BioAnalyzer HS DNA Kit before it was quantified by qPCR and sequenced on an Illumina NextSeq at the Biopolymers Facility at Harvard Medical School.
The bcbio-nextgen single cell RNA-seq analysis pipeline (https://bcbio-nextgen.readthedocs.io/en/latest/) was used to deconvolve the well barcodes and convert reads to counts. Any detected barcode that differed by more than one base from an expected barcode was removed. Unique reads were identified using unique molecular identifiers (UMIs) in order to remove PCR duplicates. The reads remaining after these filters were aligned to the transcriptome (GRCh38) using RapMap[67]. The R package DESeq. 2 version 1.20.0 (R version 3.5.1) was used for differential expression analysis.

In the case of `CN1CCN(CCC(=O)Nc2ccc3c(=O)n(CC4(O)CCN(C(=O)[C@H](CCCNC(=O)c5ccc6c(Cl)c7c(nc6c5)CCCC7)Cc5ccccc5)CC4)cnc3c2)CC1` [XL177B], under “24 hours, 0.1 or 1 μM”, the “hierarchical clustering of transcriptional profile” value is recorded as “clustered with the vehicle (DMSO)-treated control cells”. Further, the log2FoldChange by setting is: (concentration 0.1) 0.1473; (concentration 1) 0.2612.
Take `COc1ccc(C2=N[C@@H](c3ccc(Cl)cc3)[C@@H](c3ccc(Cl)cc3)N2C(=O)N2CCNC(=O)C2)c(OC(C)C)c1` [Nutlin-3A]: where the note is “24 hours, low and high dose”, the “direct p53 target genes” value is listed as “enriched for the direct p53 target genes”.
In the case of `CN1CCN(CCC(=O)Nc2ccc3c(=O)n(CC4(O)CCN(C(=O)[C@@H](CCCNC(=O)c5ccc6c(Cl)c7c(nc6c5)CCCC7)Cc5ccccc5)CC4)cnc3c2)CC1` [XL177A], the “DREAM complex target genes” value (24 hours, low and high dose) is given as “strongly downregulated the DREAM complex targets”. In addition, for the setting “24 hours, low and high dose”, the “direct p53 target genes” value is reported as “strongly upregulated the p53 targets”. The log2FoldChange reads like this: (concentration 0.1) 0.471; (concentration 1) 0.4983.
